Reference: patent US6518302B1, “Remedies” (Takara Shuzo Co., Ltd., priority 1999, dated 2003)

What was measured:
[1] = test system: prostaglandin E2 production in RAW264.7 cells; assay: Inhibition of prostaglandin E2 production induction by LPS (ELISA); assay type: cell-based; conditions: compound (7), (14) or (17) at final concentration of 50, 100 or 100 μM, respectively
Protocol: RAW264.7 cells were suspended in Dulbecco's modified Eagle's medium (Bio Whittaker, Code. 12-604F) containing 10% fetal calf serum at a concentration of 3×10^5 cells/ml. 500 μl of the suspension was added to each well of a 48-well microtiter plate and the plate was incubated at 37° C. for 6 hours in the presence of 5% CO2. The compound (7), (14) or (17) prepared in Example 1 was added to the well at a final concentration of 50, 100 or 100 μM, respectively. The plate was incubated for additional 5 hours. 10 μl of 50 μg/ml lipopolysaccharide (LPS, Sigma, Code. L-2012) aqueous solution was then added to the well. After the plate was incubated for additional 12 hours, the amount of prostaglandin E2 was measured. As control groups, a group to which LPS was not added and a group to which the compound (7), (14) or (17) was not added were provided.
After cultivation, the amount of prostaglandin E2 in the culture supernatant was measured using Prostaglandin E2 ELISA Kit (Neogen, Code. 404110). All of the measurements were carried out in triplicate.
FIG. 21 illustrates the prostaglandin E2 concentration in the medium obtained by incubating under various culture conditions. In FIG. 21, the horizontal axis represents the culture conditions and the vertical axis represents the prostaglandin E2 concentration (ng/ml).

[2] = test system: heme oxygenase 1 protein in RAW264.7 cells; assay: Heme oxygenase 1 induction (Western blot); assay type: cell-based; set-up: key: − represents no band observed; increase in the intensity of the band is represented as follows: +−<+<++; increase in the intensity of the band is represented as follows: +−<+<++; increase in the intensity of the band is represented as follows: +−<+<++; conditions: 12 hours
Protocol: RAW264.7 cells (ATCC TIB 71) were suspended in Dulbecco's modified Eagle's medium (Bio Whittaker, 12-604F) containing 10% fetal calf serum (Gibco) at a concentration of 3×10^5 cells/ml. 5 ml of the suspension was added to each well of a 6-well microtiter plate and the plate was incubated at 37° C. overnight in the presence of 5% CO2. 50 μl of a solution containing the compound (11) or the compound (14) at a concentration of 10 mM or 5 mM in water, 5 μl of a solution containing the compound (7) at a concentration of 50 mM or 25 mM in dimethyl sulfoxide, or 5 μl of a solution containing the compound (17) at a concentration of 100 mM or 50 mM in dimethyl sulfoxide was added to the well. The plate was incubated for 12 hours. A positive control for heme oxygenase 1 induction in which 5 μl of 3 mM solution of 15-deoxy-Δ12,14 prostaglandin J2 (Cayman Chemical, 18570) in dimethyl sulfoxide was added, and a negative control in which water was added were provided. The cells were recovered by detaching the cells from the plate using a scraper and suspended in 0.1 M tris-HCl buffer (pH 7.5) containing 0.05 mM pepstatin A (Sigma, P5318), 0.2 mM leupeptin (Sigma, L2884), 1 mM phenylmethylsulfonyl fluoride (Nacalai Tesque, 273-27), 10 mM ethylenediaminetetraacetic acid disodium salt and 0.1% Triton X-100. A supernatant obtained by centrifuging the suspension after freezing and thawing was used as a protein fraction. The content of protein in the protein fraction was determined using Micro BCA Protein Assay Reagent (a product of Pierce sold by Takara Shuzo, P7411). A sample from the protein fraction prepared as described above was mixed with an equal volume of 0.125 M tris-hydrochloride buffer (pH 6.8) containing 4% sodium lauryl sulfate (SDS), 2% 2-mercaptoethanol, 0.001% Bromophenol Blue and 20% glycerol. After treatment at 100° C. for 5 minutes, a portion corresponding to 10 μg of protein was loaded on 12.5% SDS-polyacrylamide gel and electrophoresed at a constant current of 20 mA. After electrophoresis, the gel was transferred to a PVDF membrane (Millipore, IPVH000 10) at a constant voltage of 15 V for 25 minutes using a blotting buffer (containing 48 mM tris, 39 mM glycine, 20% methanol and 0.0375% SDS) and Trans-Blot SD Cell Semi-Dry blotting apparatus (Bio-Rad) according to the attached protocol. After transferring, the PVDF membrane was blocked in a solution of Block Ace (Dainippon Pharmaceutical, UK-B25) at 4 C overnight. After blocking, the membrane washed three times in phosphate buffered saline containing 0.1% Tween 20 for 15 minutes with gentle shaking. The membrane was reacted in phosphate buffered saline containing 10% Block Ace, 0.1% Tween 20 and 200 ng/ml of anti-heme oxygenase 1 antibody (N-19; Santa Cruz, sc-7696) at room temperature for 1 hour with gentle shaking, and then washed three times in phosphate buffered saline containing 0.1% Tween 20 for 15 minutes with gentle shaking. The membrane was reacted in phosphate buffered saline containing 10% Block Ace, 0.1% Tween 20 and 0.1% peroxidase-labeled rabbit anti-goat IgG (H+L) antibody (Zymed, 61-1620) at room temperature for 1 hour with gentle shaking, and then washed five times in phosphate buffered saline containing 0.1% Tween 20 for 15 minutes with gentle shaking. The PVDF membrane was stained using Western Blot Chemiluminescence Reagent Plus (a product of NEN Life Science Products sold by Daiichi Pure Chemicals, NEL103) according to the attached protocol and exposed to an X-ray film (Kodak, CAT165 1454). After exposure, the film was developed using FPM800 (Fuji Film).
The intensity of the band depended on the concentration of the sample. In the table, the intensity of the band for heme oxygenase 1 protein is expressed by the mark +. Specifically, − represents no band observed, and increase in the intensity of the band is represented as follows: +−<+<++.

| SMILES | inhibition of prostaglandin E2 production induction by LPS [1] | Intensity of band for heme oxygenase 1 protein ([2]; final concentration of 25 μM) | Intensity of band for heme oxygenase 1 protein ([2]; final concentration of 50 μM) | Intensity of band for heme oxygenase 1 protein ([2]; final concentration of 100 μM) |
| --- | --- | --- | --- | --- |
| O=C[C@H](O)[C@H]1OC[C@@H](O)[C@@H]1OC(=O)c1ccccc1 [Compound (7), 4-O-benzoyl-3,6-anhydro-D-galactose] | inhibited the prostaglandin E2 production induction by LPS | + | + | – |
| OCC1OC(OC2C(CO)OC(OC3C(CO)OC(OC4C(O)COC4C(O)C(O)O)C(O)C3O)C(O)C2O)C(O)C(O)C1O [Compound (14), 4-O-β-maltotoriosyl-3,6-anhydro-D-galactose] | inhibited the prostaglandin E2 production induction by LPS | – | + | + + |
| O=C[C@H](O)[C@H]1OC[C@@H](O)[C@@H]1OCc1ccccc1 [Compound (17), 4-O-benzyl-3,6-anhydro-D-galactose] | inhibited the prostaglandin E2 production induction by LPS | – | + | + + |
